Data on two substances can be found in patent US6656699B2, “Methods and compositions for glycosidase assays” (Reddy US Therapeutics, Inc., priority 2000, dated 2003).

One test deals with T1, heparanase (Pedobacter heparinus, UniProt Q59289).
T1 construct: purchased Seikagaku
The test is described as follows: Heparanase assay: biotin-HS digestion with heparanase with or without excess unlabeled HS. Type of test: biochemical, bacterial. The conditions noted are these: 50 fold (5 μg) excess of unlabeled HS. The protocol:
Biotin-labeled HS from Example 1 was digested with heparanase, and the reaction containing undegraded and degraded HS was bound to in a biotin-binding plate (FIG. 1). Streptavidin, conjugated with an enzyme, was added to the binding plate. Quantitation of the color reaction measured the amount of available biotin binding sites. A decrease in color from a known amount reflects HS digestion by heparanase.
A lyophilized powder of heparanase (Heparanase III obtained from Seikagaku) containing 0.1 units of enzymatic activity was hydrated in 100 μl of Reaction Buffer (3.33 mM calcium acetate pH 7.0, containing 0.1 mg/ml BSA). This solution was then diluted to a working concentration of heparanase solution (0.01 micro-units to 1 milli-unit) in Reaction Buffer. Enzyme activity was defined by the manufacturer of the heparanase (Seikagaku) as follows: one unit of enzyme activity is defined as amount required to generate 1 μmole of hexuronic acid per minute. Biotin-HS was diluted to a desired concentration in Reaction Buffer.
To determine heparanase activity, 10 μl of heparanase solution was mixed with 200 μl of the biotin-HS substrate in a 96 well plate. The reaction was incubated at 43° C. for 1 hour. […] Color development in the wells was assessed by measuring the optical density at 450 nm in a microplate reader (Labsystems, Muliskan Ascent model). […]

The test system of the next test is biotin-HS. The test can be described thus: Digestion of biotin-HS by enzymes, detected with streptavidin-enzyme conjugate. The conditions noted are these: protease in place of heparanase; FIG. 6. Type of test: biochemical.

T1 sequence (Q59289 25-659): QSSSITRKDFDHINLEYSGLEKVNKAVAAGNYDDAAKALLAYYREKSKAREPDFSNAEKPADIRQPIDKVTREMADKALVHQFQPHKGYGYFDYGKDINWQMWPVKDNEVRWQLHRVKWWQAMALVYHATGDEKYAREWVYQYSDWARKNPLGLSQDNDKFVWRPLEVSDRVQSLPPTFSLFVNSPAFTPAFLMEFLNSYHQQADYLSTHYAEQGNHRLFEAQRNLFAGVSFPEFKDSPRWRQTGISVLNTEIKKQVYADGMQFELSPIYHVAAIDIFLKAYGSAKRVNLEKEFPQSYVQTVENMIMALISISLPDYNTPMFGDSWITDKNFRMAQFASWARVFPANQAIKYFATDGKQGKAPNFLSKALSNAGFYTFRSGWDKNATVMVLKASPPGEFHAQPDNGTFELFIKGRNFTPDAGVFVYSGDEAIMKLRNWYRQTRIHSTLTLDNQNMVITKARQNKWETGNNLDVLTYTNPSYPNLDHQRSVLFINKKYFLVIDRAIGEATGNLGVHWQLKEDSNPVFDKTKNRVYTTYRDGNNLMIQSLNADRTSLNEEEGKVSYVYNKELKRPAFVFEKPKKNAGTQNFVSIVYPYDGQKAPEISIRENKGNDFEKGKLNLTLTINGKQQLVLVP

On to heparan sulfate [unlabeled HS], for which the “Inhibition of heparanase activity toward biotin-HS” value at heparanase is on record as “approximately 60%”.

As to trypsin, the “Activity leading to a decrease in the amount of biotin-HS detected by the assay” value with biotin-HS is given as “Neither protease tested (MMP or trypsin) demonstrated any activity”.
